According to patent publication US20150174068A1, “Apparatus, Composition, and Related Methods for Transdermal Delivery of Active Ingredients” (CURE IP HOLDINGS, LLC, priority 2011, published 2015):
Read-outs that look alike come from different tables or passages of the source.

Assays:
[1] = human, pH 7.4
[2] = In vitro transdermal caffeine delivery, Franz diffusion cells, excised human epidermis; assay type: in vitro ADME; details: after application of the formulations
Protocol: Pre-clinical selection of topical formulations was performed using an in-vitro penetration study through human epidermal membrane, which assesses the percutaneous absorption profiles of applied drugs. The method is based on the use of excised human skin as a membrane in a diffusion system that simulates in-vivo skin conditions. By analyzing the amount of the drug reaching the receptor solution, the penetration profile of the drug in the skin can be assessed and used as a tool to determine the feasibility of formulations for subsequent development. Embodiments of the transdermal compositions were tested in an in vitro penetration study through human epidermis as a testing membrane to simulate topical drug delivery. In particular, excised human epidermis was utilized to assess the penetration profiles of caffeine. Two transdermal compositions were tested: Formulation A and Formulation B. […] Formulation A was tested with and without occlusion. Parafilm was applied for occlusion tests, and the samples were kept under occlusion during the period of the study. […] The materials for the assays were: […] Formulation A; and Formulation B. […] Therefore, each formulation contained radioactive caffeine of 50 μCi/mL. The mixtures were stored at a 4° C. refrigerator after preparation. […] The amount of radioactive caffeine was analyzed from the receptor fluid samples. […]

Row | SMILES | amount of active ingredient that penetrated the epidermis ([1]; 5 %) | amount of active ingredient that penetrated the epidermis [1] | time to penetration of caffeine through the epidermis into the receptor chamber [2] [min]
1 | Nc1nc2ncc(CNc3ccc(C(=O)N[C@@H](CCC(=O)O)C(=O)O)cc3)nc2c(=O)[nH]1 [folic acid] | Approximately 1% |  | 
2 | CC(=O)O[C@H]1C(=O)[C@@]2(C)[C@H]([C@H](OC(=O)c3ccccc3)[C@]3(O)C[C@H](OC(=O)[C@H](O)[C@@H](NC(=O)c4ccccc4)c4ccccc4)C(C)=C1C3(C)C)[C@]1(OC(C)=O)CO[C@@H]1C[C@@H]2O [Paclitaxel, paclitaxel] |  | approximately 0.5% | 
3 | C[C@]12CC[C@@H]3c4ccc(O)cc4CC[C@H]3[C@@H]1CC[C@@H]2O [estradiol] | Greater than 2% |  | 
4 | Cn1c(=O)c2c(ncn2C)n(C)c1=O [caffeine] | Greater than 3% | greater than 1% | ≤ 3
